# Reference: patent US20220062240A1, “METHODS OF TREATING CANCER USING A CLK INHIBITOR” (BioSplice Therapeutics, Inc., priority 2018, published 2022)
# Read-outs that look alike come from different tables or passages of the source.
# What was measured:
# CAMA1 = assay: CellTiter-Glo Viability Assay, breast cancer; type: cell-based; conditions: Homo sapiens, CAMA-1, 96 h; CAMA1, breast cancer, four days; read-out: EC50
# BT-549 = assay: CellTiter-Glo Viability Assay, breast cancer; type: cell-based; conditions: Homo sapiens, 96 h; BT-549, breast cancer, four days; read-out: EC50
# MDA-MB-231-Luc = assay: CellTiter-Glo Viability Assay, breast cancer; type: cell-based; conditions: Homo sapiens, 96 h; MDA-MB-231-Luc, breast cancer, four days; read-out: EC50
# ZR-75-1 = assay: CellTiter-Glo Viability Assay, breast cancer; type: cell-based; conditions: Homo sapiens, 96 h; ZR-75-1, breast cancer, four days; read-out: EC50
# HCC1599 = assay: CellTiter-Glo Viability Assay, breast cancer; type: cell-based; conditions: Homo sapiens, 96 h; HCC1599, breast cancer, four days; read-out: EC50
# DU4475 = assay: CellTiter-Glo Viability Assay, breast cancer; type: cell-based; conditions: Homo sapiens, DU-4475, 96 h; DU4475, breast cancer, four days; read-out: EC50
# MCF7 = assay: CellTiter-Glo Viability Assay, breast cancer; type: cell-based; conditions: Homo sapiens, 96 h; MCF7, breast cancer, four days; read-out: EC50
# T47D = assay: CellTiter-Glo Viability Assay, breast cancer; type: cell-based; conditions: Homo sapiens, 96 h, breast cancer, four days, read-out: EC50
# [1] = test system: liver cancer (3 cell lines); assay: CellTiter-Glo Viability Assay, liver cancer; type: cell-based; conditions: Homo sapiens, inhibition of cancer cell proliferation
# [2] = test system: ovarian cancer (4 cell lines); assay: CellTiter-Glo Viability Assay, ovarian cancer; type: cell-based; conditions: Homo sapiens, inhibition of cancer cell proliferation
# [3] = test system: haematopoietic & lymphoid tumors (13 cell lines); assay: CellTiter-Glo Viability Assay, haematopoietic & lymphoid tumors; type: cell-based; conditions: Homo sapiens, inhibition of cancer cell proliferation
# [4] = test system: colorectal cancer (6 cell lines); assay: CellTiter-Glo Viability Assay, colorectal cancer; type: cell-based; conditions: Homo sapiens, inhibition of cancer cell proliferation
# [5] = test system: pancreatic cancer (8 cell lines); assay: CellTiter-Glo Viability Assay, pancreatic cancer; type: cell-based; conditions: Homo sapiens, inhibition of cancer cell proliferation
# [6] = test system: prostate cancer (5 cell lines); assay: CellTiter-Glo Viability Assay, prostate cancer; type: cell-based; conditions: Homo sapiens
# CLK3 = CLK3 (Homo sapiens, UniProt P49761); assay: CLK3 kinase activity assay (Z-lyte, Ser/Thr 18 peptide)
# [7] = test system: lung cancer (4 cell lines); assay: CellTiter-Glo Viability Assay, lung cancer; type: cell-based; conditions: Homo sapiens, inhibition of cancer cell proliferation
# CLK2 = target: T1, CLK2 (Homo sapiens, UniProt P49760); assay: CLK2 kinase activity assay (Z-lyte, Ser/Thr 6 peptide); type: biochemical; conditions: recombinant CLK2 kinase, ATP 60 μM; read-out: EC50
# T1 construct: purchased Thermo Fisher (Life Technologies), Z'-LYTE Kinase Assay Kits
# Protocol: All reactions were performed in duplicate.
# all 50 cell lines = assay: CellTiter-Glo Viability Assay, average across all cell lines; type: cell-based; conditions: Homo sapiens; across all 50 cell lines; read-out: average EC50 for inhibition of cancer cell proliferation
# How it was run: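 Cells were plated at 300-3,000 per well in their own media, then treated with compound in duplicate, with DMSO wells as controls. After four days at 37° C and 5% CO2, CellTiter-Glo was added, and luminescence was read. EC50s were fitted.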
# [8] = SNU-398, SNU398 cell line, read-out: Liver cancer, EC50 SNU398
# [9] = HEPG2 cell line, read-out: Liver cancer, EC50 HEPG2
# [10] = PLC/PRF/5 cell line, read-out: Liver cancer, EC50 PLC/PRF/5
# [11] = PA-1, PA1 cell line, read-out: Ovarian cancer, EC50 (μM) PA1
# [12] = TOV112D, TOV-112D cell line, read-out: Ovarian cancer, EC50 (μM) TOV-112D
# [13] = OV-90 cell line, read-out: Ovarian cancer, EC50 (μM) OV-90
# [14] = OVCAR-3 cell line, read-out: Ovarian cancer, EC50 (μM) OVCAR-3
# [15] = DND41, DND-41 cell line, read-out: Haematopoietic & Lymphoid tumors, EC50 (μM) DND-41
# [16] = MV4-11, MV-4-11 cell line, read-out: Haematopoietic & Lymphoid tumors, EC50 (μM) MV-4-11
# [17] = Rec1, REC-1 cell line, read-out: Haematopoietic & Lymphoid tumors, EC50 (μM) REC-1
# [18] = SU-DHL-4, SUDHL4 cell line, read-out: Haematopoietic & Lymphoid tumors, EC50 (μM) SUDHL4
# [19] = HL-60 cell line, read-out: Haematopoietic & Lymphoid tumors, EC50 (μM) HL-60
# [20] = JM1 cell line, read-out: Haematopoietic & Lymphoid tumors, EC50 (μM) JM1
# [21] = JURKAT, Clone E6-1 cell line, read-out: Haematopoietic & Lymphoid tumors, EC50 (μM) JURKAT, Clone E6-1
# [22] = JeKo-1 cell line, read-out: Haematopoietic & Lymphoid tumors, EC50 (μM) JeKo-1
# [23] = KASUMI-1 cell line, read-out: Haematopoietic & Lymphoid tumors, EC50 (μM) KASUMI-1
# [24] = Loucy cell line, read-out: Haematopoietic & Lymphoid tumors, EC50 (μM) Loucy
# [25] = MOLT-4 cell line, read-out: Haematopoietic & Lymphoid tumors, EC50 (μM) MOLT-4
# [26] = TF-1 cell line, read-out: Haematopoietic & Lymphoid tumors, EC50 (μM) TF-1
# [27] = TOLEDO cell line, read-out: Haematopoietic & Lymphoid tumors, EC50 (μM) TOLEDO
# [28] = HCT-116, HCT116 cell line, read-out: Colorectal cancer, EC50 (μM) HCT116
# [29] = HT-29, HT29 cell line, read-out: Colorectal cancer, EC50 (μM) HT29
# [30] = SW-620, SW620 cell line, read-out: Colorectal cancer, EC50 (μM) SW620
# [31] = DLD-1 cell line, read-out: Colorectal cancer, EC50 (μM) DLD-1
# [32] = SW48 cell line, read-out: Colorectal cancer, EC50 (μM) SW48
# [33] = SW480 cell line, read-out: Colorectal cancer, EC50 (μM) SW480
# [34] = BXPC-3, BxPC3 cell line, read-out: Pancreatic cancer, EC50 BxPC3
# [35] = CAPAN-1, Capan1 cell line, read-out: Pancreatic cancer, EC50 Capan1
# [36] = Capan-2, Capan2 cell line, read-out: Pancreatic cancer, EC50 Capan2
# [37] = MIA PaCa-2 cell line, read-out: Pancreatic cancer, EC50 MIA PaCa-2
# [38] = PANC 05.04 cell line, read-out: Pancreatic cancer, EC50 PANC 05.04
# [39] = PANC-1 cell line, read-out: Pancreatic cancer, EC50 PANC-1
# [40] = UPAFII cell line, read-out: Pancreatic cancer, EC50 UPAFII
# [41] = DU-145, read-out: Prostate cancer EC50 Du-145
# [42] = PC-3, PC3 cell line, inhibition of cancer cell proliferation, read-out: Prostate cancer EC50 PC3
# [43] = 22Rv1 cell line, inhibition of cancer cell proliferation, read-out: Prostate cancer EC50 22Rv1
# [44] = LNCap clone FGC cell line, inhibition of cancer cell proliferation, read-out: Prostate cancer EC50 LNCap clone FGC
# [45] = VCaP (Sigma) cell line, inhibition of cancer cell proliferation, read-out: Prostate cancer EC50 VCaP (Sigma)
# [46] = A-427, A427 cell line, read-out: Lung cancer, EC50 (μM) A427
# [47] = HCC78, HCC-78 cell line, read-out: Lung cancer, EC50 (μM) HCC-78
# [48] = NCI-H460 cell line, read-out: Lung cancer, EC50 (μM) NCI-H460
# [49] = NCI-H522 cell line, read-out: Lung cancer, EC50 (μM) NCI-H522
# Chain of CLK3 (P49761 whole entry): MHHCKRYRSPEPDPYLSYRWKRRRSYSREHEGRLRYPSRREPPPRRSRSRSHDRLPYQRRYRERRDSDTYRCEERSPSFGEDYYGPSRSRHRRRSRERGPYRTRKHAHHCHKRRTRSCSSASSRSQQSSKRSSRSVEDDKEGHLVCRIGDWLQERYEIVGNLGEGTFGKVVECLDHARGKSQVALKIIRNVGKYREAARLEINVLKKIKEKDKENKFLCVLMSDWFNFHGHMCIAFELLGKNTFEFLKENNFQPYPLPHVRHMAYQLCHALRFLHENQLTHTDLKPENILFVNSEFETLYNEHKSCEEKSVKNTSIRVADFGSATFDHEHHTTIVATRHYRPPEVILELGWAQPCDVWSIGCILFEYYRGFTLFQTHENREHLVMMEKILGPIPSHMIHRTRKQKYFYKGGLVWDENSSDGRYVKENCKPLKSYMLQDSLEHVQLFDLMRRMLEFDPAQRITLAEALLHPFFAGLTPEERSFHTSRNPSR
# T1 sequence (P49760 whole entry): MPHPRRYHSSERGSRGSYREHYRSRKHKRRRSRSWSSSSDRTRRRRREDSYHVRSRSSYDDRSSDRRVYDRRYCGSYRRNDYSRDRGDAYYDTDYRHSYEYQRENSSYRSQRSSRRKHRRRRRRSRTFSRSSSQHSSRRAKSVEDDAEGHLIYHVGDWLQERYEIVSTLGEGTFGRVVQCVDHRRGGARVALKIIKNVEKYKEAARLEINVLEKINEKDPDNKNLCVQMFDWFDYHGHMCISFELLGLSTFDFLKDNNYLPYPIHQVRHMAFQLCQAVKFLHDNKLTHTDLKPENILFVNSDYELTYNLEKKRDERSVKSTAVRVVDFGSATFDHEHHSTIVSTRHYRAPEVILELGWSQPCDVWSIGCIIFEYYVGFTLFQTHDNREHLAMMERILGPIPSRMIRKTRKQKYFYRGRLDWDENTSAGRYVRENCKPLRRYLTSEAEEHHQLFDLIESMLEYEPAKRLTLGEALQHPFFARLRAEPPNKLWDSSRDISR
structure (smiles),measurement,setting,value
[2H]c1c([2H])c([2H])c(/C=C/C(=O)Nc2cc3cc(-c4cncn4C)ccc3cn2)c([2H])c1[2H] [Compound 81],EC50,CAMA1,429 nM
same,EC50,BT-549,273 nM
same,EC50,MDA-MB-231-Luc,338 nM
same,EC50,ZR-75-1,441 nM
same,EC50,HCC1599,165 nM
same,EC50,DU4475,152 nM
same,EC50,MCF7,505 nM
same,EC50,T47D,471 nM
same,EC50,[1]; [8],112 nM
same,EC50,[1]; [9],470 nM
same,EC50,[1]; [10],466 nM
same,EC50,[2]; [11],0.218 µM
same,EC50,[2]; [12],0.228 µM
same,EC50,[2]; [13],0.838 µM
same,EC50,[2]; [14],0.315 µM
same,EC50,[3]; [15],0.213 µM
same,EC50,[3]; [16],0.025 µM
same,EC50,[3]; [17],0.106 µM
same,EC50,[3]; [18],0.407 µM
same,EC50,[3]; [19],0.235 µM
same,EC50,[3]; [20],0.12 µM
same,EC50,[3]; [21],0.305 µM
same,EC50,[3]; [22],0.136 µM
same,EC50,[3]; [23],0.206 µM
same,EC50,[3]; [24],0.374 µM
same,EC50,[3]; [25],0.186 µM
same,EC50,[3]; [26],0.391 µM
same,EC50,[3]; [27],0.13 µM
same,EC50,[4]; [28],0.147 µM
same,EC50,[4]; [29],0.433 µM
same,EC50,[4]; [30],0.135 µM
same,EC50,[4]; [31],0.199 µM
same,EC50,[4]; [32],0.12 µM
same,EC50,[4]; [33],0.132 µM
same,EC50,[5]; [34],848 nM
same,EC50,[5]; [35],372 nM
same,EC50,[5]; [36],620 nM
same,EC50,[5]; [37],261 nM
same,EC50,[5]; [38],564 nM
same,EC50,[5]; [39],600 nM
same,EC50,[5]; [40],348 nM
same,EC50,[6]; [41],429 nM
same,EC50,[6]; [42],287 nM
same,EC50,[6]; [43],329 nM
same,EC50,[6]; [44],444 nM
same,EC50,[6]; [45],497 nM
same,EC50,CLK3,15.4 nM
same,EC50,[7]; [46],0.216 µM
same,EC50,[7]; [47],0.396 µM
same,EC50,[7]; [48],0.329 µM
same,EC50,[7]; [49],0.216 µM
same,EC50,CLK2,3.4 nM
same,EC50,all 50 cell lines,324 nM
Cc1ncc(-c2ccc3cnc(NC(=O)c4cnn(C5CCN(C)CC5)c4)cc3c2)o1 [Compound 83],EC50,CAMA1,304 nM
same,EC50,BT-549,176 nM
same,EC50,MDA-MB-231-Luc,193 nM
same,EC50,ZR-75-1,220 nM
same,EC50,HCC1599,99 nM
same,EC50,DU4475,145 nM
same,EC50,MCF7,491 nM
same,EC50,T47D,253 nM
same,EC50,[1]; [8],50 nM
same,EC50,[1]; [9],107 nM
same,EC50,[1]; [10],314 nM
same,EC50,[2]; [11],0.17 µM
same,EC50,[2]; [12],0.121 µM
same,EC50,[2]; [13],0.234 µM
same,EC50,[2]; [14],0.11 µM
same,EC50,[3]; [15],0.185 µM
same,EC50,[3]; [16],0.033 µM
same,EC50,[3]; [17],0.065 µM
same,EC50,[3]; [18],0.151 µM
same,EC50,[3]; [19],0.409 µM
same,EC50,[3]; [20],0.064 µM
same,EC50,[3]; [21],0.353 µM
same,EC50,[3]; [22],0.064 µM
same,EC50,[3]; [23],0.129 µM
same,EC50,[3]; [24],0.135 µM
same,EC50,[3]; [25],0.196 µM
same,EC50,[3]; [26],0.256 µM
same,EC50,[3]; [27],0.087 µM
same,EC50,[4]; [28],0.102 µM
same,EC50,[4]; [29],0.182 µM
same,EC50,[4]; [30],0.065 µM
same,EC50,[4]; [31],0.145 µM
same,EC50,[4]; [32],0.058 µM
same,EC50,[4]; [33],0.117 µM
same,EC50,[5]; [34],254 nM
same,EC50,[5]; [35],198 nM
same,EC50,[5]; [36],321 nM
same,EC50,[5]; [37],91 nM
same,EC50,[5]; [38],169 nM
same,EC50,[5]; [39],291 nM
same,EC50,[5]; [40],140 nM
same,EC50,[6]; [41],199 nM
same,EC50,[6]; [42],195 nM
same,EC50,[6]; [43],140 nM
same,EC50,[6]; [44],330 nM
same,EC50,[6]; [45],255 nM
same,EC50,CLK3,13.6 nM
same,EC50,[7]; [46],0.275 µM
same,EC50,[7]; [47],0.173 µM
same,EC50,[7]; [48],0.197 µM
same,EC50,[7]; [49],0.105 µM
same,EC50,CLK2,2.9 nM
same,EC50,all 50 cell lines,182 nM
